In US7964643B2, “Aryl alkyl sulfonamides as therapeutic agents for the treatment of bone conditions” (The University Court of the University of Aberdeen, priority 2004, dated 2011) one finds IC50 data, which are given here for 31 compounds.

The test system of this assay is J774 macrophage cell line. The assay is described as follows: Alamar Blue macrophage J774 viability assay. The assay is classed as cell-based. The note with it: Mus musculus, J774, 72 h, 72 hours culture with compound, Alamar Blue, read-out: IC50 (J774). The procedure:
Initial screening of candidate compounds was performed using viability assays, on cultures of the macrophage cell line J774, which have been used before as a model system for osteoclast survival (see, e.g., Luckman et al., 1998). The assays are based on the survival of the J774 macrophage cell line; macrophages are closely related to osteoclasts, and contain similar high levels of esterase activity.
J774 cells were plated at 10^4 cells per well in 150 μL αMEM (α Modified Eagle Medium) in 96-well plates and grown overnight. The next day, compounds were added to the cultures, and culture was continued for another 72 hours. At the end of the culture period cell survival was determined using an Alamar Blue assay as previously described (see, e.g., Nociari et al., 1998).
Alamar Blue is an oxidation-reduction sensitive indicator. The dye itself is in the oxidised state, which is blue and non-fluorescent. The dye can accept electrons from reducing species, such as NADPH and FADH, to form a reduced dye species, which is red and fluorescent. Thus the transformation from oxidised form to reduced form can be measured by fluorimetric or colourimetric means. For fluorescence measurements, 530-560 nm excitation and 590 nm emission wavelengths are typically used. For colourimetric measurements, absorbance is measured at 570 nm (reduced form) and 600 nm (oxidised form) and a simple calculation performed to determine the relative quantities of the two species.
A high ratio of the reducing species, NADPH and FADH, to the corresponding oxidised species, NADP and FAD, is an indicator that cells are proliferating and viable. A low ratio indicates cells that are quiescent or non-viable.
Briefly, Alamar Blue (Biosource International) was added undiluted to the each well (1:10 v/v, 15 μL). The plate was incubated at 37° C. for 3-4 hours and the fluorescence was measured at 570 nm, with a 25 nm bandwidth. A high reading indicated cells with normal viability, and a low reading indicates cells that have been damaged and are no longer proliferating normally. The controls gave a high fluorescence reading, indicating a high number of live, healthy cells. A potent test compound gave a low fluorescence reading. The average results for each test compound (n=5) were expressed as a percent (%) of the average control value.
Addition of Compounds. All of the compounds studied were made up as 100 mM solutions in DMSO. These stock solutions were then diluted 100 or 1000× in culture medium (αMEM). From these 1 mM or 100 μM solutions, convenient quantities (3-15 μL) were added directly to the wells so as to give the desired final compound concentration.
Turning to `O=S(=O)(NCCCCO)c1ccc(-c2ccc(F)cc2)cc1` [ABD-200, 4′-Fluorobiphenyl-4-sulfonic acid-(4-hydroxybutyl)-amide], the IC50 was 8 ± 2.5 µM.

Consider `O=S(=O)(NCCCCO)c1ccc(-c2ccc(C(F)(F)F)cc2)c(F)c1` [ABD-294, 2-Fluoro-4′-trifluoromethylbiphenyl-4-sulfonic acid-(4-hydroxybutyl)-amide], for which the IC50 is 5 ± 1 µM.

Take `O=[N+]([O-])c1ccccc1-c1ccc(S(=O)(=O)NCCCCO)c(C(F)(F)F)c1` [ABD-365, 2′-Nitro-3-trifluoromethylbiphenyl-4-sulfonic acid-(4-hydroxybutyl)-amide]: the IC50 is 0.3 ± 0.1 µM.

In the case of `O=S(=O)(NCCCCO)c1ccc(-c2ccc(Br)cc2)cc1` [ABD-201, 4′-Bromobiphenyl-4-sulfonic acid-(4-hydroxybutyl)-amide], the IC50 turned out to be 9 ± 2 µM.

Take `O=S(=O)(NCCCCO)c1ccc(-c2ccc(F)cc2F)cc1Cl` [ABD-325, 3-Chloro-2′,4′-difluoro-biphenyl-4-sulfonic acid-(4-hydroxybutyl)-amide]: the IC50 turned out to be 2.5 ± 0.5 µM.

Take `N#Cc1ccc(-c2ccc(S(=O)(=O)NCCCCCO)cc2)cc1` [ABD-262, 4′-Cyanobiphenyl-4-sulfonic acid-(5-hydroxypentyl)-amide]: the IC50 came out at 12 ± 2 µM.

As for `O=[N+]([O-])c1ccccc1-c1ccc(S(=O)(=O)NCCCCO)cc1` [ABD-227, 2′-Nitrobiphenyl-4-sulfonic acid-(4-hydroxybutyl)-amide], the IC50 turned out to be 2 ± 0.5 µM.

On to `O=S(=O)(NCCCCO)c1ccc(-c2ccccc2I)cc1` [ABD-275, 2′-Iodobiphenyl-4-sulfonic acid-(4-hydroxybutyl)-amide], for which the IC50 worked out at 5.5 ± 1.5 µM.

For `O=S(=O)(NCCCCCO)c1ccc(-c2ccccc2C(F)(F)F)cc1` [ABD-284, 2′-Trifluoromethylbiphenyl-4-sulfonic acid-(5-hydroxypentyl)-amide], the IC50 was determined as 6 ± 1.5 µM.

For the compound `O=S(=O)(NCCCCO)c1ccc(-c2ccc(C(F)(F)F)cc2)cc1` [ABD-246, 4′-Trifluoromethylbiphenyl-4-sulfonic acid-(4-hydroxybutyl)-amide], the half-inhibitory concentration (IC50) was 5 ± 1 µM.

For the compound `Nc1ccccc1-c1ccc(S(=O)(=O)NCCCCO)cc1` [ABD-263, 2′-Aminobiphenyl-4-sulfonic acid-(4-hydroxybutyl)-amide], the IC50 is 24 ± 3 µM.

Take `COc1ccccc1-c1ccc(S(=O)(=O)NCCCCCO)cc1` [ABD-267, 2′-Methoxybiphenyl-4-sulfonic acid-(5-hydroxypentyl)-amide]: the IC50 is 31 ± 4 µM.

With `O=[N+]([O-])c1cccc(-c2ccc(S(=O)(=O)NCCCCO)cc2)c1` [ABD-226, 3′-Nitrobiphenyl-4-sulfonic acid-(4-hydroxybutyl)-amide], the IC50 was found to be 33 ± 3 µM.

Turning to `O=S(=O)(NCCCCO)c1ccc(-c2ccccc2)cc1C(F)(F)F` [ABD-310, 3-Trifluoromethylbiphenyl-4-sulfonic acid-(4-hydroxybutyl)-amide], the IC50 was 4.5 ± 1 µM.

With `CN(C)c1ccc(-c2ccc(S(=O)(=O)NCCCCCO)cc2)cc1` [ABD-276, 4′-Dimethylaminobiphenyl-4-sulfonic acid-(5-hydroxypentyl)-amide], the IC50 turned out to be 32 ± 3 µM.

Consider `O=S(=O)(NCCCCO)c1ccc(-c2ccc(F)cc2F)cc1OC(F)(F)F` [ABD-360, 2′,4′-Difluoro-3-trifluoromethoxybiphenyl-4-sulfonic acid-(4-hydroxybutyl)-amide], for which the IC50 was found to be 1 ± 0.3 µM.

For `O=S(=O)(NCCCCCO)c1ccc(-c2ccc(-c3ccccc3)cc2)cc1` [ABD-279, p-Terphenyl-4-sulfonic acid-(5-hydroxypentyl)-amide], the IC50 stood at 33 ± 5 µM.

Regarding `Cc1ccc(-c2ccc(S(=O)(=O)NCCCCCO)cc2)cc1` [ABD-260, 4′-Methylbiphenyl-4-sulfonic acid-(5-hydroxypentyl)-amide], the IC50 worked out at 12 ± 2 µM.

For `Cc1cc(S(=O)(=O)NCCCCO)ccc1-c1ccc(F)cc1` [ABD-320, 4′-Fluoro-2-methylbiphenyl-4-sulfonic acid-(4-hydroxybutyl)-amide], the IC50 turned out to be 2.5 ± 0.2 µM.

`O=S(=O)(NCCCCCO)c1ccc(-c2ccc(F)cc2F)cc1` [ABD-248, 2′,4′-Difluorobiphenyl-4-sulfonic acid-(5-hydroxypentyl)-amide]: the IC50 was 4.5 ± 1 µM.

For `O=S(=O)(NCCCCCO)c1ccc(-c2ccccc2)cc1` [ABD-180, Biphenyl-4-sulfonic acid-(5-hydroxypentyl)-amide], the IC50 came out at 20 ± 3 µM.

As for `Cc1cccc(-c2ccc(S(=O)(=O)NCCCCO)cc2)c1` [ABD-308, 3′-Methylbiphenyl-4-sulfonic acid-(4-hydroxybutyl)-amide], the concentration for half-maximal inhibition (IC50) came to 28 ± 3 µM.

On to `CCOc1ccc(-c2ccc(S(=O)(=O)NCCCCCO)cc2)cc1` [ABD-297, 4′-Ethoxybiphenyl-4-sulfonic acid-(5-hydroxypentyl)-amide], for which the IC50 came to 35 ± 5 µM.

`O=S(=O)(NCCCCCO)c1ccc(-c2ccc(O)cc2)cc1` [ABD-277, 4′-Hydroxybiphenyl-4-sulfonic acid-(5-hydroxypentyl)-amide]: the IC50 came out at 21 ± 3 µM.

With `O=S(=O)(NCCCCO)c1ccc(-c2ccc(Br)cc2F)cc1` [ABD-265, 4′-Bromo-2′-fluorobiphenyl-4-sulfonic acid-(4-hydroxybutyl)-amide], the IC50 amounted to 3 ± 1 µM.

For the compound `O=C(O)c1ccc(-c2ccc(S(=O)(=O)NCCCCCO)cc2)cc1` [ABD-271, 4′-Carboxybiphenyl-4-sulfonic acid-(5-hydroxypentyl)-amide], the IC50 turned out to be 33 ± 3 µM.

Regarding `O=S(=O)(NCCCCO)c1ccc(-c2ccc(OC(F)(F)F)cc2)cc1` [ABD-306, 4′-Trifluoromethoxybiphenyl-4-sulfonic acid-(4-hydroxybutyl)-amide], the IC50 is 8 ± 1 µM.

For `CC(=O)c1ccc(-c2ccc(S(=O)(=O)NCCCCCO)cc2)cc1` [ABD-261, 4′-Acetylbiphenyl-4-sulfonic acid-(5-hydroxypentyl)-amide], the IC50 was 11 ± 2 µM.

Take `O=S(=O)(NCCCCCO)c1ccc(-c2ccc(F)c(F)c2)cc1` [ABD-257, 3′,4′-Difluorobiphenyl-4-sulfonic acid-(5-hydroxypentyl)-amide]: the IC50 amounted to 16 ± 3 µM.

On to `O=S(=O)(NCCCCO)c1ccc(-c2ccc(C(F)(F)F)cc2)cc1F` [ABD-302, 3-Fluoro-4′-trifluoromethylbiphenyl-4-sulfonic acid-(4-hydroxybutyl)-amide], for which the IC50 was determined as 5.5 ± 1.5 µM.

Turning to `CSc1ccc(-c2ccc(S(=O)(=O)NCCCCO)cc2)cc1` [ABD-258, 4′-Methylthiobiphenyl-4-sulfonic acid-(4-hydroxybutyl)-amide], the IC50 is 35 ± 6 µM.

A word on the IC50: it is the concentration that inhibits the measured activity by half.
